How the values were obtained:
Rattus norvegicus [1] = test: Maximum effect of 30 mg/kg administered orally on mean aortic blood pressure in the conscious renal hypertensive rat; format: functional, Artery; details: route oral
Rattus norvegicus [2] = test: Change in mean aortic blood pressure in the conscious renal hypertensive rat after oral administration of 30 mg/kg; format: functional, Artery
Rattus norvegicus [3] = test: Time required after administration of 3 mg/kg of compound iv, for the AI response to return to 70% of the pretreatment control response; format: functional
Rattus norvegicus [4] = test: Time required after administration of 30 mg/kg of compound po, for the AI response to return to 70% of the pretreatment control response; format: functional
Rattus norvegicus [5] = test: Maximum inhibition of the angiotensin I challenge at 3 mg/kg, iv, in conscious, normotensive rats; format: functional
Rattus norvegicus [6] = test: Maximum inhibition of the angiotensin I challenge at 30mg/kg, po in conscious, normotensive rats; format: functional
Rattus norvegicus [7] = test: Time required after administration of 0.3 mg/kg of compound po, for the AI response to return to 70% of the pretreatment control response; format: functional
Rattus norvegicus [8] = test: Change in mean aortic blood pressure in the conscious renal hypertensive rat after oral administration of 0.3 mg/kg; format: functional, Artery
Rattus norvegicus [9] = test: Time required after administration of 3 mg/kg of compound po, for the AI response to return to 70% of the pretreatment control response; format: functional
Rattus norvegicus [10] = test: Change in mean aortic blood pressure in the conscious renal hypertensive rat after oral administration of 3 mg/kg; format: functional, Artery
Rattus norvegicus [11] = test: Maximum inhibition of the angiotensin I challenge at 0.3 mg/kg, po, in conscious, normotensive rats; format: functional
Rattus norvegicus [12] = test: Maximum effect of 3 mg/kg of compound administered orally on mean aortic blood pressure in the conscious renal hypertensive rat; format: functional, Artery; details: route oral
Rattus norvegicus [13] = test: Maximum inhibition of the angiotensin I challenge at 3 mg/kg, po, in conscious, normotensive rats; format: functional
Rattus norvegicus [14] = test: Maximum effect of 0.3 mg/kg of compound administered orally on mean aortic blood pressure in the conscious renal hypertensive rat; format: functional, Artery; details: route oral
Rattus norvegicus [15] = test: Time required after administration of 0.03 mg/kg of compound po, for the AI response to return to 70% of the pretreatment control response; format: functional
Rattus norvegicus [16] = test: Maximum inhibition of the angiotensin I challenge at 0.03 mg/kg, po, in conscious, normotensive rats; format: functional
[17] = target: Angiotensin-converting enzyme (Homo sapiens, UniProt P12821); test: Concentration required to inhibit the activity of Angiotensin I converting enzyme by 50%; format: protein assay, Cavia porcellus
Chain of Angiotensin-converting enzyme (P12821 whole entry): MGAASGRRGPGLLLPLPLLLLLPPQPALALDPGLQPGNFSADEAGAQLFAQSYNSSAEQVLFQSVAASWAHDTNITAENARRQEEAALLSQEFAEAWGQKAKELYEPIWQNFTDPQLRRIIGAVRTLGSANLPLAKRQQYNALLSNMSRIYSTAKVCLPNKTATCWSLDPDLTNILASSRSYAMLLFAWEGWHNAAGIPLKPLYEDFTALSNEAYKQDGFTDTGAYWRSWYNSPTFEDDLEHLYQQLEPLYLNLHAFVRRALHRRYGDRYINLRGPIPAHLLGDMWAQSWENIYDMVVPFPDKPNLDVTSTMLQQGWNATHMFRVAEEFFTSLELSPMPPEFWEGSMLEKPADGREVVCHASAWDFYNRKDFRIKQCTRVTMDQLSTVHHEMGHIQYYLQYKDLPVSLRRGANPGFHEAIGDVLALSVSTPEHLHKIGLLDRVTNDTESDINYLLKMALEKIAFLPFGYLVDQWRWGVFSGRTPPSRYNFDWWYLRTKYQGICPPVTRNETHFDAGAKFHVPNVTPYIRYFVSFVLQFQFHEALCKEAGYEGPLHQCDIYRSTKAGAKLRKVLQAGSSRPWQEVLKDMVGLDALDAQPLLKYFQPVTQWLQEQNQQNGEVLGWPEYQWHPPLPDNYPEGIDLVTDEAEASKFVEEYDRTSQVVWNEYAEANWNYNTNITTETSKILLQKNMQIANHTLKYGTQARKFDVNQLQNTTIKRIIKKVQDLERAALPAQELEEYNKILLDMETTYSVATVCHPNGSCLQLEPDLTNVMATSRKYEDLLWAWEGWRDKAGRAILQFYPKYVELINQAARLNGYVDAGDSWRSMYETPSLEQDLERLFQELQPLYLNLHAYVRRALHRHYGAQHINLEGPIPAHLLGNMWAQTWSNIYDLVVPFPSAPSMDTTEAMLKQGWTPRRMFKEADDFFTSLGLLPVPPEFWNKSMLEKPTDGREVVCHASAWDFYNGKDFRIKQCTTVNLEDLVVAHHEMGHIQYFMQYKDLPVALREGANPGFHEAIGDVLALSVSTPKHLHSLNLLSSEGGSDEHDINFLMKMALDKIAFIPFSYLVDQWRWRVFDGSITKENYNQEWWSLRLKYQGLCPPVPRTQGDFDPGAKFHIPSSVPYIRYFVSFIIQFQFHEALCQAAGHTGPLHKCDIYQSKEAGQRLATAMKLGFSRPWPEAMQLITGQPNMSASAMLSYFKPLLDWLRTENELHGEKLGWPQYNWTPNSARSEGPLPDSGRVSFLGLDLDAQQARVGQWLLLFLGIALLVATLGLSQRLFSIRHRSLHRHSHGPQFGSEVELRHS

Compound	Mean aortic blood pressure at maximum effect (Rattus norvegicus [1])	Change (Rattus norvegicus [2])	further results
Cc1ccccc1C(=O)NC(Cc1ccccc1)C(=O)CCC(=O)N1CCC[C@H]1C(=O)OCc1ccccc1 (some centres undefined)	175 mmHg	-20 mmHg	–
O=C(NC(Cc1ccccc1)C(=O)CCC(=O)N1CC(O)C[C@H]1C(=O)O)c1ccccc1 (some centres undefined)	168 mmHg	-20 mmHg	–
O=C(NC(Cc1ccccc1)C(=O)CCC(=O)N1CCC[C@H]1C(=O)O)OCc1ccccc1 (some centres undefined)	175 mmHg	-22 mmHg	–
CC(=O)NC(Cc1ccccc1)C(=O)CCC(=O)N1CCC[C@H]1C(=O)O (some centres undefined)	176 mmHg	-26 mmHg	–
O=C(NC(Cc1ccccc1)C(=O)CCC(=O)N1CCC[C@H]1C(=O)O)c1ccco1 (some centres undefined)	184 mmHg	-1 mmHg	AI recovery time (Rattus norvegicus [3]): 52 min; AI recovery time (Rattus norvegicus [4]): 84 min; Max inhibition (Rattus norvegicus [5]): 84%; Max inhibition (Rattus norvegicus [6]): 32%
COc1ccc(CC(NC(=O)c2ccccc2)C(=O)CCC(=O)N2CCC[C@H]2C(=O)O)cc1OC (some centres undefined)	174 mmHg	-5 mmHg	AI recovery time (Rattus norvegicus [3]): 24 min; AI recovery time (Rattus norvegicus [4]): 5 min; Max inhibition (Rattus norvegicus [5]): 74%; Max inhibition (Rattus norvegicus [6]): 33%
O=C(N[C@@H](Cc1ccccc1)C(=O)CCC(=O)N1CCC[C@H]1C(=O)O)c1ccccc1	178 mmHg	-12 mmHg	AI recovery time (Rattus norvegicus [3]): 34 min; AI recovery time (Rattus norvegicus [4]): 49 min; Max inhibition (Rattus norvegicus [5]): 57%; Max inhibition (Rattus norvegicus [6]): 48%
O=C(NC(Cc1cccnc1)C(=O)CCC(=O)N1CCC[C@H]1C(=O)O)c1ccccc1 (some centres undefined)	184 mmHg	-20 mmHg	–
Cc1ccccc1C(=O)NC(Cc1ccccc1)C(=O)CCC(=O)N1CCC[C@H]1C(=O)O (some centres undefined)	188 mmHg	-15 mmHg	–
O=C(NC(Cc1ccc(O)cc1)C(=O)CCC(=O)N1CCC[C@H]1C(=O)O)c1ccccc1 (some centres undefined)	172 mmHg	-23 mmHg	AI recovery time (Rattus norvegicus [3]): 34 min; AI recovery time (Rattus norvegicus [4]): 24 min; Max inhibition (Rattus norvegicus [5]): 82%; Max inhibition (Rattus norvegicus [6]): 46%
O=C(CCC(=O)N1CCC[C@H]1C(=O)O)C(Cc1ccccc1)NC(=O)C1CCCO1 (some centres undefined)	163 mmHg	-23 mmHg	AI recovery time (Rattus norvegicus [4]): 10 min; Max inhibition (Rattus norvegicus [5]): 64%; Max inhibition (Rattus norvegicus [6]): 24%
C[C@H](CS)C(=O)N1CCC[C@H]1C(=O)O [CAPTOPRIL]	85 mmHg	-101 mmHg	AI recovery time (Rattus norvegicus [7]): 170 min; Change (Rattus norvegicus [8]): -19 mmHg; AI recovery time (Rattus norvegicus [9]): >240 min; Change (Rattus norvegicus [10]): -93 mmHg; Max inhibition (Rattus norvegicus [11]): 69%; Max effect (Rattus norvegicus [12]): 99 mmHg; Max inhibition (Rattus norvegicus [13]): 95%; Max effect (Rattus norvegicus [14]): 170 mmHg; AI recovery time (Rattus norvegicus [15]): 80 min; Max inhibition (Rattus norvegicus [16]): 16%
O=C(NC(Cc1cccnc1)C(=O)CCC(=O)N1CCC[C@H]1C(=O)OCc1ccccc1)c1ccccc1 (some centres undefined)	159 mmHg	-32 mmHg	–
COC(=O)[C@@H]1CCCN1C(=O)CCC(=O)C(Cc1ccccc1)NC(=O)c1ccccc1 (some centres undefined)	142 mmHg	-11 mmHg	Change (Rattus norvegicus [10]): -34 mmHg; Max effect (Rattus norvegicus [12]): 165 mmHg
O=C(CCC(=O)C(Cc1ccccc1)NC(=O)c1ccccc1)NC(Cc1ccccc1)C(=O)OCc1ccccc1 (centres undefined)	182 mmHg	-5 mmHg	–
O=C(NC(Cc1ccccc1)C(=O)CCC(=O)N1CCCC1)c1ccccc1 (centres undefined)	–	–	IC50 [17]: Not Active
O=C(NC(Cc1ccc(OCc2ccccc2)cc1)C(=O)CCC(=O)N1CCC[C@H]1C(=O)O)c1ccccc1 (some centres undefined)	195 mmHg	-5 mmHg	–

— ChEMBL document CHEMBL1121683, “Novel synthesis of (S)-1-[5-(benzoylamino)-1,4-dioxo-6-phenylhexyl]-L-proline and analogues: potent angiotensin converting enzyme inhibitors” (J Med Chem, 1981)
